Data as given in ChEMBL document CHEMBL1155446, “Imidazo[4,5-b]pyridine derivatives as inhibitors of Aurora kinases: lead optimization studies toward the identification of an orally bioavailable preclinical development candidate” (J Med Chem, 2010).
Values after ≈ are worked out from the molar mass of the structure shown.

Columns and labels:
HCT-116 = experiment: Growth inhibition of human HCT116 cells after 72 hrs by MTT assay; type: functional; conditions: HCT-116, 72 h
Aurora kinase A = biological target: T1, Aurora kinase A (Homo sapiens, UniProt O14965)
T1 sequence (O14965 whole entry): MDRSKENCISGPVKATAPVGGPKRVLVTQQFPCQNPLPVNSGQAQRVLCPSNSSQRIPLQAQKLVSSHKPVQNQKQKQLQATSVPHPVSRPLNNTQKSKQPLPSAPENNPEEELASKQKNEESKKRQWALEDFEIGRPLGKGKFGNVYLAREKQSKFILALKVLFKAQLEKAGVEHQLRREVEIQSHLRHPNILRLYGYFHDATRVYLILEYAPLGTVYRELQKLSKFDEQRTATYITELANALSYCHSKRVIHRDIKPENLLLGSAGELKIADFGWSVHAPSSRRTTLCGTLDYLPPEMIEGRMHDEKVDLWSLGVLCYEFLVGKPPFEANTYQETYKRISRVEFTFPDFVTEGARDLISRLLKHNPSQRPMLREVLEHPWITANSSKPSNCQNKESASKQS
Description: Inhibition of human recombinant Aurora A expressed in baculovirus system

hERG (KCNH2) = hERG (KCNH2) (Homo sapiens, UniProt Q12809); experiment: Inhibition of human ERG at 10 uM
[1] = biological target: Tyrosine-protein kinase Lck (Homo sapiens) (UniProt P06239); experiment: Inhibition of LCK at 1 uM
Chain of Tyrosine-protein kinase Lck (Homo sapiens) (P06239 2-509 limits assumed): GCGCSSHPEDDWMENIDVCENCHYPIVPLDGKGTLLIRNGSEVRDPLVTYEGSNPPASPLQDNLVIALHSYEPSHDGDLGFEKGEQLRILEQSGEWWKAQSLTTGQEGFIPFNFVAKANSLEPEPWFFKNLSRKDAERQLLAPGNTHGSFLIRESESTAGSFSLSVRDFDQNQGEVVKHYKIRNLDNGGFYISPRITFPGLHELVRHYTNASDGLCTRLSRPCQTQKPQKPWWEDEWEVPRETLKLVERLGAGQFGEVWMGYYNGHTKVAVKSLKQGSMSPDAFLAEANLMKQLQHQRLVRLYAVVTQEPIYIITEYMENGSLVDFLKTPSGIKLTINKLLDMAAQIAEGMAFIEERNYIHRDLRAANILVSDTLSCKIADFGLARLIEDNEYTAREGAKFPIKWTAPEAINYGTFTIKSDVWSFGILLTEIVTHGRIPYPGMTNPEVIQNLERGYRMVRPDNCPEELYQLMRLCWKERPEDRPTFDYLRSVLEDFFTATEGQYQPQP

[2] = biological target: Platelet-derived growth factor receptor beta (Homo sapiens) (UniProt P09619); experiment: Inhibition of PDGFRbeta at 1 uM
[3] = biological target: Angiopoietin-1 receptor (Homo sapiens) (UniProt Q02763); experiment: Inhibition of TEK at 1 uM
Chain of Angiopoietin-1 receptor (Homo sapiens) (Q02763 whole entry): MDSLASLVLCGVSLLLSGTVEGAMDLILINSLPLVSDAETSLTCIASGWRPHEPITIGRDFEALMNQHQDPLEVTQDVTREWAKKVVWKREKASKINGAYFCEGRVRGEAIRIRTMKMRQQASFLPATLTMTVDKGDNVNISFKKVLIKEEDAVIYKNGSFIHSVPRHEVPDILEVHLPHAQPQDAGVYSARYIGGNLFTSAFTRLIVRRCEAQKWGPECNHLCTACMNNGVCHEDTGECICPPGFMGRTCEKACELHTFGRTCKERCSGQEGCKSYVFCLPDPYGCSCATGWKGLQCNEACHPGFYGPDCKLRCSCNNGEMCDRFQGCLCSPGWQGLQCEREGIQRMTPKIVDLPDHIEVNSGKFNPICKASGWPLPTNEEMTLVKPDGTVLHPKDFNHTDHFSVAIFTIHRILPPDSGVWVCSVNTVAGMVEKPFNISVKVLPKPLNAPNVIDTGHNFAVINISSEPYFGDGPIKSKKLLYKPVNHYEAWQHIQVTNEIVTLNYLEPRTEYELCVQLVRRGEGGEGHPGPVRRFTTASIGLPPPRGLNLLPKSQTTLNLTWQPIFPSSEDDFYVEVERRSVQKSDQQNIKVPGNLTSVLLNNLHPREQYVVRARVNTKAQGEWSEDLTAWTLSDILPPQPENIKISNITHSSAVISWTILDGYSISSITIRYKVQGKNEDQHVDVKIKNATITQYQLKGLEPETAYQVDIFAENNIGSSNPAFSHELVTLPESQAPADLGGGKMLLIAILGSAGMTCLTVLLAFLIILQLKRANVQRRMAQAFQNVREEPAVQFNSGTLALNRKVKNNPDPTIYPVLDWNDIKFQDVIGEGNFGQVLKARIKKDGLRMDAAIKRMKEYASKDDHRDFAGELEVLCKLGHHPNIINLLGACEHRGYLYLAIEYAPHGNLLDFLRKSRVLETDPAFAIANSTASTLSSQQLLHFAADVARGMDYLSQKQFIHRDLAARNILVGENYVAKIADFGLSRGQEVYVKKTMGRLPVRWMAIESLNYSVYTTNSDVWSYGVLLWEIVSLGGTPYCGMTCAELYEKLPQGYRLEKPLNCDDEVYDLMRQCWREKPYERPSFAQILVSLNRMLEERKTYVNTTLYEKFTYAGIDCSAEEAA

[4] = biological target: Aurora kinase B (Homo sapiens) (UniProt Q96GD4); experiment: Inhibition of Aurora B at 1 uM
Chain of Aurora kinase B (Homo sapiens) (Q96GD4 whole entry): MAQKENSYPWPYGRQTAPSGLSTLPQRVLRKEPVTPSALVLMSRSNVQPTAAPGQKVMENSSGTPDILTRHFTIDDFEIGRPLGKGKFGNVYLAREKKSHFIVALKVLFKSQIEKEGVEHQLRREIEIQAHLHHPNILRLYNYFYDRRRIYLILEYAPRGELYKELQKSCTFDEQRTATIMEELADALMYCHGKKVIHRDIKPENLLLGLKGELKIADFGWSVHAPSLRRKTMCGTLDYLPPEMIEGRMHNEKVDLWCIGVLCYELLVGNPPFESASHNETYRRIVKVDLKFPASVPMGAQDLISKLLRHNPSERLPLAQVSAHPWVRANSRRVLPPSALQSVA

[5] = biological target: Hepatocyte growth factor receptor (Homo sapiens) (UniProt P08581); experiment: Inhibition of MET at 1 uM
Chain of Hepatocyte growth factor receptor (Homo sapiens) (P08581 whole entry): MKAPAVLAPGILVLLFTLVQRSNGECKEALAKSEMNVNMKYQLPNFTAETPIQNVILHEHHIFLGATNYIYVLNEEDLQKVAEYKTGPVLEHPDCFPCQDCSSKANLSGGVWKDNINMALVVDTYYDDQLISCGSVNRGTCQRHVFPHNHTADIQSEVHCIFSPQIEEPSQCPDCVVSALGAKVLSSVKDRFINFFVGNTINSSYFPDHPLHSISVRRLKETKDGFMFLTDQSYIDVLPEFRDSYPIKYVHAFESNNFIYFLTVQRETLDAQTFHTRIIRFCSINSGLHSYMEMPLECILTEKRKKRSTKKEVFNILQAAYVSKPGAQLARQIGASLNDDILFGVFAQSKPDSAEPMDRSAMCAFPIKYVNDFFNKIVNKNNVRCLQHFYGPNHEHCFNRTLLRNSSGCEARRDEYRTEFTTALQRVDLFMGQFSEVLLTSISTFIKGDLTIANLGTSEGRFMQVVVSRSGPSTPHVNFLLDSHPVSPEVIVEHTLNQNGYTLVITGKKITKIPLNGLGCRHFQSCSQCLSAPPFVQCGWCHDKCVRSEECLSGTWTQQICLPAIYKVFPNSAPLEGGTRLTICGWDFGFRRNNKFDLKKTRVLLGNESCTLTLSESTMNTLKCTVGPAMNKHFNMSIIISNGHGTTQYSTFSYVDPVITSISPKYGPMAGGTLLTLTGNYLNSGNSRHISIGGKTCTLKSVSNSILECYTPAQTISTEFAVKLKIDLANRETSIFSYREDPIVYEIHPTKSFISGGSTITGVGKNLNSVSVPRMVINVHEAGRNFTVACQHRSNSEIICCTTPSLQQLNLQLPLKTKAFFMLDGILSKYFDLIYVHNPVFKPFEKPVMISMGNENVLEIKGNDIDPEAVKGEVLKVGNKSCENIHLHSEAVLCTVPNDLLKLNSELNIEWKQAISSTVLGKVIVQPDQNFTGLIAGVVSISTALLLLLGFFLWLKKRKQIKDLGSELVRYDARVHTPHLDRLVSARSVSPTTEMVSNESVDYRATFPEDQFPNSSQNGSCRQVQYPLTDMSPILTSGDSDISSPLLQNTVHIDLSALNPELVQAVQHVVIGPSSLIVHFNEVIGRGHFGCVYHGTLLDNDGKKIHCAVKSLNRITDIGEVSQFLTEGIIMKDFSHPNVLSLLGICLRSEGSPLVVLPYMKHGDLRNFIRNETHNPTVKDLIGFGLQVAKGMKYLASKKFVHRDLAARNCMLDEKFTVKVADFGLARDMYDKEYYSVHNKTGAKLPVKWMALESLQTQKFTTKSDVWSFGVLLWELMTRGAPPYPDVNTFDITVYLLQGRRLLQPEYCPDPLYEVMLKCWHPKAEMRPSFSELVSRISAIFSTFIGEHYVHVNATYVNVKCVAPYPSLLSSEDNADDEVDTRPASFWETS

[6] = biological target: T2, Ephrin type-B receptor 4 (Homo sapiens) (UniProt P54760); experiment: Inhibition of EPHB4 at 1 uM
T2 sequence (whole entry): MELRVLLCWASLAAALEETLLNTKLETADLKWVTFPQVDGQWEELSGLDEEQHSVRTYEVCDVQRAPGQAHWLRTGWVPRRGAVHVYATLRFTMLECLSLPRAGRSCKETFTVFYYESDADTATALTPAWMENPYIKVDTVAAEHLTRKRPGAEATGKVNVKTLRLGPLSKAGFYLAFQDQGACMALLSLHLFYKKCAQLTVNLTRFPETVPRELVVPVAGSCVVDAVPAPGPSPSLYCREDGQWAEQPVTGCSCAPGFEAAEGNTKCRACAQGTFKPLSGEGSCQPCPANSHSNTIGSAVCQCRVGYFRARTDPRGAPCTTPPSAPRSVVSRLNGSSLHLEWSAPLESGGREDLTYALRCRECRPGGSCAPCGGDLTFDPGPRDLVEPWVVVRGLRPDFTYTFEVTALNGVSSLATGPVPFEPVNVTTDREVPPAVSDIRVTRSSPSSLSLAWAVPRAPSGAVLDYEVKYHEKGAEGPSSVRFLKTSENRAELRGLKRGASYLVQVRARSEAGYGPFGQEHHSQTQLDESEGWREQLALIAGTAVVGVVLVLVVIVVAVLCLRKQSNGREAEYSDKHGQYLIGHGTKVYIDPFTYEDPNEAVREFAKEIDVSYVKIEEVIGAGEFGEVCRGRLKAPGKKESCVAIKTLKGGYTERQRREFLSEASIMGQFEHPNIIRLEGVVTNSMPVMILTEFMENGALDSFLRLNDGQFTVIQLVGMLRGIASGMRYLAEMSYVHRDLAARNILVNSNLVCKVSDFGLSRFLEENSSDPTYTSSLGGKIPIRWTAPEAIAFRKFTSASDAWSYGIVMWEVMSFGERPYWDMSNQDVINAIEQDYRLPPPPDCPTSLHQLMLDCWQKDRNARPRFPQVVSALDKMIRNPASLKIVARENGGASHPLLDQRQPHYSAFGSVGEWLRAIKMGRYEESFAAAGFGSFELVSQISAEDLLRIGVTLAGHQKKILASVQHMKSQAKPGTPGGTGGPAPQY

[7] = biological target: T3, Aurora kinase A (Homo sapiens) (UniProt O14965); experiment: Inhibition of Aurora A at 1 uM
T3 sequence (whole entry): T1 sequence (O14965 whole entry)

[8] = biological target: Vascular endothelial growth factor receptor 1 (Homo sapiens) (UniProt P17948); experiment: Inhibition of FLT1 at 1 uM
[9] = biological target: High affinity nerve growth factor receptor (Homo sapiens) (UniProt P04629); experiment: Inhibition of NTRK1 at 1 uM
[10] = biological target: Vascular endothelial growth factor receptor 2 (Homo sapiens) (UniProt P35968); experiment: Inhibition of KDR at 1 uM
Chain of Vascular endothelial growth factor receptor 2 (Homo sapiens) (P35968 whole entry): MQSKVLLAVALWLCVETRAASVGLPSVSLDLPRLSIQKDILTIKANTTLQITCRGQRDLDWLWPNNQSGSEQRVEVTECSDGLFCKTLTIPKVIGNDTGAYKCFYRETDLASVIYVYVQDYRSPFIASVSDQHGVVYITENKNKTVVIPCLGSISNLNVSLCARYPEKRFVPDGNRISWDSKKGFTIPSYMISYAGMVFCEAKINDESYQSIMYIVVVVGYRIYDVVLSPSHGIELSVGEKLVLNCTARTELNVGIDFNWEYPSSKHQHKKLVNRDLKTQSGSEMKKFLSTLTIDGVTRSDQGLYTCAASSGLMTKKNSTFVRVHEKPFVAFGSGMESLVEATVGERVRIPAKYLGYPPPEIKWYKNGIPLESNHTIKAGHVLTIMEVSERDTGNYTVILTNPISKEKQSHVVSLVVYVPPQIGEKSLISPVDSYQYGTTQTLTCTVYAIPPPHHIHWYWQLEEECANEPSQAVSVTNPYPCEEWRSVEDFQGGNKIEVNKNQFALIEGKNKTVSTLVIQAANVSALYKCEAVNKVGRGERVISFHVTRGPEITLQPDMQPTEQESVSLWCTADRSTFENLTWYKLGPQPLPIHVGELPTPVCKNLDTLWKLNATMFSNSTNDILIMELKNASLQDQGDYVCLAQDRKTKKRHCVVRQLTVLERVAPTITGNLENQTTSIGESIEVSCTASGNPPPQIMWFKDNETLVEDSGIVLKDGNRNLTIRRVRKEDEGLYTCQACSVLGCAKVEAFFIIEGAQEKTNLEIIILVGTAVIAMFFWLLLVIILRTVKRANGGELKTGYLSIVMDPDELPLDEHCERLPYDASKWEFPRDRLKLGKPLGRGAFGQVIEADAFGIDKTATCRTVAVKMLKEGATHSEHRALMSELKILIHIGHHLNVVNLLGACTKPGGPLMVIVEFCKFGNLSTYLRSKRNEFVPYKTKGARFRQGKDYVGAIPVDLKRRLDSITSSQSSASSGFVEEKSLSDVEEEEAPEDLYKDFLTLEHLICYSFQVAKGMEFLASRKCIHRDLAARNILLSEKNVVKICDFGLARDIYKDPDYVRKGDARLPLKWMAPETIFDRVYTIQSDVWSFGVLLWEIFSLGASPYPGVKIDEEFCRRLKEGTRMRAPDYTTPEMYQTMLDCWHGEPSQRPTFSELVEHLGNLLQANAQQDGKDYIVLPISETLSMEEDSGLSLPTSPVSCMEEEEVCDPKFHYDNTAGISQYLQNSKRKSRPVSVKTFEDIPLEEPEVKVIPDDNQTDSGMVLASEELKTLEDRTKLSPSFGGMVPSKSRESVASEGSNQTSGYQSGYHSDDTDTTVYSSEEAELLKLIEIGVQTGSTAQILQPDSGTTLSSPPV

[11] = Metabolic stability in CD1 mouse liver microsomes assessed as compound remaining at 10 uM after 30 mins by LC-MS/MS analysis; type: ADME, Microsome; conditions: read-out: Stability
[12] = Aqueous solubility of the compound; type: physicochemical; conditions: buffer
[13] = Oral bioavailability in BALB/c mouse at 5 mg/kg; type: ADME, organism-based; conditions: in vivo

Row | SMILES | GI50 (HCT-116) [nM] | IC50 (Aurora kinase A) [nM] | further results
1 | COc1ccc(-c2nc3c(N4CCN(Cc5cccnc5)CC4)c(Br)cnc3[nH]2)cc1 | 1150 | 9 | –
2 | Clc1ccc(CN2CCN(c3c(Br)cnc4[nH]c(-c5ccc(CN6CCOCC6)cc5)nc34)CC2)cc1 | 600 | – | inhibition at 10 µM (hERG (KCNH2)): 53%; inhibition [1]: 8%; inhibition [2]: 15%; inhibition [3]: 5%; inhibition [4]: 60%; inhibition [5]: 3%; inhibition [6]: 4%; inhibition [7]: 98%; inhibition [8]: 35%; inhibition [9]: 33%; inhibition [10]: 35%
3 | CN(C)c1ccc(-c2nc3c(N4CCN(S(=O)(=O)c5ccccc5)CC4)c(Br)cnc3[nH]2)cc1 | – | 178 | –
4 | COc1ccc(-c2nc3c(N4CCN(CC5CC5)CC4)c(Br)cnc3[nH]2)cc1 | 830 | 650 | –
5 | CN(C)c1ccc(-c2nc3c(N4CCN(CC(=O)Nc5nccs5)CC4)c(Br)cnc3[nH]2)cc1 | 480 | 55 | –
6 | Cc1cc(CN2CCN(c3c(Br)cnc4[nH]c(-c5ccc(N6CCNCC6)cc5)nc34)CC2)no1 | 100 | – | remaining at 0.5 h, 10 µM [11]: > 50%
7 | CN(C)c1ccc(-c2nc3c(N4CCN(CC(=O)Nc5cccc(Cl)c5)CC4)c(Cl)cnc3[nH]2)cc1 | 2670 | 75 | –
8 | O=C(CN1CCN(c2c(Cl)cnc3[nH]c(-c4ccc(CN5CCOCC5)cc4)nc23)CC1)Nc1nccs1 | 360 | 3 | –
9 | O=C(CN1CCN(c2c(Br)cnc3[nH]c(-c4ccccc4)nc23)CC1)Nc1nccs1 | 3000 | 81 | –
10 | Cc1cc(CN2CCN(c3c(Cl)cnc4nc(-c5ccc(CN)cc5)[nH]c34)CC2)no1 | 650 | 55 | remaining at 0.5 h, 10 µM [11]: > 50%
11 | COc1ccc(-c2nc3c(N4CCN(Cc5nccn5C)CC4)c(Br)cnc3[nH]2)cc1 | 1500 | 32 | –
12 | Cc1cc(CN2CCN(c3c(Br)cnc4[nH]c(-c5ccc(Cn6cccn6)cc5)nc34)CC2)no1 | 120 | – | –
13 | Cc1cc(CN2CCN(c3c(Cl)cnc4nc(-c5ccc(OCCO)cc5)[nH]c34)CC2)no1 | 450 | 20 | remaining at 0.5 h, 10 µM [11]: > 50%
14 | Cn1ccnc1CN1CCN(c2c(Br)cnc3[nH]c(-c4ccc(CN5CCOCC5)cc4)nc23)CC1 | 1500 | 30 | –
15 | CC(c1ccccc1)N1CCN(c2c(Cl)cnc3[nH]c(-c4ccc(N(C)C)cc4)nc23)CC1 (stereo unspecified) | 900 | 79 | –
16 | CC(C)CN1CCN(c2c(Br)cnc3[nH]c(-c4ccc(N(C)C)cc4)nc23)CC1 | 970 | 210 | –
17 | CN(C)c1ccc(-c2nc3c(N4CCN(CC(=O)Nc5nccs5)CC4)c(C#N)cnc3[nH]2)cc1 | 1030 | 50 | –
18 | CN(C)c1ccc(-c2nc3c(N4CCN(CC(=O)Nc5ccccc5)CC4)c(Cl)cnc3[nH]2)cc1 | 2550 | 115 | –
19 | Cc1cc(CN2CCN(c3c(Br)cnc4nc(-c5ccc(CN(C)C)cc5)[nH]c34)CC2)no1 | 230 | 14 | remaining at 0.5 h, 10 µM [11]: > 50%

Row | SMILES | GI50 (HCT-116) [nM] | IC50 (Aurora kinase A) [nM] | further results
20 | Cc1cc(CN2CCN(c3c(Br)cnc4[nH]c(-c5ccc(OCCO)cc5)nc34)CC2)no1 | 280 | 30 | remaining at 0.5 h, 10 µM [11]: > 50%; solubility [12]: 10 µg/mL (≈ 19.5 µM)
21 | CN(C)c1ccc(-c2nc3c(N4CCN(C(=O)Nc5ccccc5)CC4)c(Br)cnc3[nH]2)cc1 | 10000 | 277 | –
22 | Cc1cc(CN2CCN(c3c(Cl)cnc4[nH]c(-c5ccc(Cn6cccn6)cc5)nc34)CC2)no1 | 450 | – | –
23 | Brc1cnc2[nH]c(-c3ccc(CN4CCOCC4)cc3)nc2c1N1CCN(Cc2cscn2)CC1 | – | 6 | –
24 | Cc1cc(CN2CCN(c3c(Br)cnc4[nH]c(-c5ccc(CN6CCOCC6)cc5)nc34)CC2)no1 | 60 | 2 | –
25 | COc1ccc(-c2nc3ncc(C4CC4)c(N4CCN(CC(=O)Nc5nccs5)CC4)c3[nH]2)cc1 | 2500 | 53 | –
26 | CC(c1ccncc1)N1CCN(c2c(Br)cnc3[nH]c(-c4ccc(N(C)C)cc4)nc23)CC1 (stereo unspecified) | 900 | 85 | –
27 | COc1ccc(-c2nc3c(N4CCN(Cc5cncnc5)CC4)c(Br)cnc3[nH]2)cc1 | 400 | 8 | –
28 | CN(C)Cc1ccc(-c2nc3c(N4CCN(CC(=O)Nc5nccs5)CC4)c(Br)cnc3[nH]2)cc1 | 1000 | 16 | –
29 | Brc1cnc2[nH]c(-c3ccc(CN4CCOCC4)cc3)nc2c1N1CCN(Cc2cncnc2)CC1 | 420 | 6 | –
30 | Brc1cnc2[nH]c(-c3ccc(CN4CCOCC4)cc3)nc2c1N1CCN(Cc2cccnc2)CC1 | 280 | – | solubility [12]: 30 µg/mL (≈ 54.7 µM); bioavailability [13]: 13%
31 | CN(C)c1ccc(-c2nc3c(N4CCNCC4)c(Br)cnc3[nH]2)cc1 | 950 | 365 | –
32 | COc1ccc(-c2nc3c(N4CCN(Cc5cscn5)CC4)c(Br)cnc3[nH]2)cc1 | 320 | 4 | remaining at 0.5 h, 10 µM [11]: 45%
33 | Cc1cc(CN2CCN(c3c(Br)cnc4[nH]c(-c5ccc(CN)cc5)nc34)CC2)no1 | 240 | 10 | remaining at 0.5 h, 10 µM [11]: > 50%
34 | COc1ccc(-c2nc3c(N4CCN(CC(=O)Nc5nccs5)CC4)c(Cl)cnc3[nH]2)cc1 | 900 | 52 | –
35 | Cc1cc(CN2CCN(c3c(Br)cnc4nc(-c5ccc(CN6CCNCC6)cc5)[nH]c34)CC2)no1 | 78 | 10 | remaining at 0.5 h, 10 µM [11]: > 50%; solubility [12]: 870 µg/mL (≈ 1580 µM)
36 | CN(C)c1ccc(-c2nc3c(N4CCN(c5ccccc5)CC4)c(Br)cnc3[nH]2)cc1 | – | 258 | –
37 | CN(C)c1ccc(-c2nc3c(N4CCN(Cc5ccncc5)CC4)c(Br)cnc3[nH]2)cc1 | 700 | 55 | –
38 | CN(C)c1ccc(-c2nc3c(N4CCN(CC(=O)Nc5cccnc5)CC4)c(Br)cnc3[nH]2)cc1 | 1650 | 118 | –
